# Literature values as cited in patent US5659037A, “Process for preparing chiral tetracyclic dopaminergic compounds” (Abbott Laboratories, priority 1995, dated 1997).
# What was measured:
# dopamine D1 = conditions: Nichols U.S. Pat. No. 5,047,536; WO 93/24462; Brewster et al. (1990)
# adenylate cyclase = conditions: Knoerzer et al., J. Med. Chem., 37:2453-60 (1994)
# [1] = Seeman, Pharmacol. Rev. 32:2:229 (1980)
Compound,dopamine D1 agonist activity (dopamine D1),other results
Cc1ccc2c(c1)[C@@H]1c3cc(O)c(O)cc3CC[C@H]1NC2 (relative stereo) [2-methyl derivative],potent and selective dopamine D1 agonists,
"Oc1cc2c(cc1O)[C@@H]1c3ccccc3CN[C@H]1CC2 (relative stereo) [dihydrexidine, trans-10,11-dihydroxy-5,6,6a,7,8,12b-hexahydrobenzo[a]phenanthridine]",potent and selective dopamine D1 agonists,
"Oc1cc2c(cc1O)[C@@H]1c3ccccc3CN[C@H]1CC2 [6aS,12bR-(-)-isomer]",,activity in an adenylate cyclase assay (adenylate cyclase): inactive
"NC1CCc2cc(O)c(O)cc2C1 (stereo not shown) [ADTN, 2-amino-6,7-dihydroxy-1,2,3,4-tetrahydronaphthalene]",,dopamine agonist activity [1]: greatest activity in its chiral (R)-(+)-isomeric form
